Measured values reported in patent US20260297127A1, “REVERSIBLE SURFACTANT AND MULTIFUNCTIONAL DRUG DELIVERY SYSTEMS BASED THEREON” (Yissum Research Development Company of the Hebrew …, priority 2023, published 2026).
Peptide text beside a SMILES is read from it.

Legend:
[1] = Zn^2+ ions for PTX; metal ions for the others; cited from earlier work
[2] = Emulsion formation and stability (mixing with non-aqueous phase, manual agitation); type: physicochemical; details: chloroform-water
Text: We designed the peptide Trp-His-His-Trp (WHHW, SEQ ID NO 1), which contains a metal-binding dihistidine moiety surrounded by two hydrophobic amino acids. When an aqueous solution of the peptide and certain metal ions are mixed with a non-aqueous phase, an emulsion is formed (FIG. 1B). […] Depending on the ratio between the aqueous and non-aqueous phases, o/w or w/o emulsions can be formed (FIG. 1C). The peptide has weak inherent fluorescence, but its presence on the interface of the emulsion droplets was inferred by labeling it with fluorescein isothiocyanate (FITC) (FIG. 1D).
By increasing the pH again, the emulsion can be reassembled. With chloroform as the non-aqueous phase, the emulsion has a critical micelle concentration of ~0.2 mM and it is stable for at least 4 months at room temperature (FIG. 3A). Adding ethylenediaminetetraacetic acid (EDTA) to remove the metal ions visibly disassembled the emulsion after ~24 h (FIG. 3B).
The same peptide derivatives in the presence of Cu^2+ ions, were further mixed with chloroform and manually agitated to form emulsions (FIG. 8).
The emulsions were prepared by mixing a peptide solution with the metal ions to a final concentration of 1 mm each and adding NaOH to obtain pH=10. The desired non-aqueous phase was added to this solution at 50% (v/v) and the two phases were manually agitated to form the emulsions. […]

[3] = Encapsulation efficiency (% EE) in castor oil emulsions and solubility in the oil phase; type: physicochemical; details: for % EE (encapsulation efficiency) in words: castor oil emulsion
Experimental: The % EE values may be altered to fit different drugs by changing the oil phase or by changing the emulsion preparation parameters such as the oil-water ratio.
The encapsulation efficiency (% EE) values were determined by comparing the amount of the free compound in the aqueous phase with the initial concentration. The compounds were dissolved in castor oil with 10% (v/v) ethanol. […] The % EE values were calculated using the formula: % EE=(Cinitial−C(aq.))/Cinitial×100%, where Cinitial is the concentration of the compound in the emulsion and Caq. is the concentration of the compound in the aqueous phase after the centrifugation. The measurements were performed in triplicates.

[4] = in words; cited from earlier work
[5] = tested on: cervical adenocarcinoma HeLa cells; assay: MTT cytotoxicity assay, 72 h incubation; type: cell-based; details: Homo sapiens, PTX on its own, dissolved in DMSO, read-out: half maximal inhibitory concentration (IC50)
Experimental: The ability to use these emulsions for drug delivery purposes was assessed using the 3-(4,5-dimethylthiazol-2-yl)-2,5-diphenyltetrazolium bromide (MTT) assay. The assay was conducted on cervical adenocarcinoma HeLa cells with the widely used drug paclitaxel (PTX). […] This poses significant disadvantages due to stability issues of the drug that can precipitate when diluted, causing therapeutic failures and possibly harming the patients. […] One way to overcome these complications is to administer the drug in an emulsion. An additional advantage of the system proposed herein is that the disassembly of the emulsion droplets will release the metal ions of the complex in addition to the PTX. […]
The complete cell-culture medium was prepared by the addition of 10% fetal bovine serum (FBS), 1% L-glutamine, and 1% Penicillin-Streptomycin (all purchased from Sartorius) to Dulbecco's Modified Eagle's Medium (DMEM, Sigma Aldrich). […] Afterwards, cytotoxicity was measured by the previously reported MTT method. […] The medium was removed and replaced with isopropanol (200 μL), and upon complete dissolution of the formazan, the absorbance was measured at 550 nm on a Spark 10 M multimode microplate reader spectrophotometer (Tecan Group Ltd., Mannedorf, Switzerland). […]

[6] = UV-vis titration / Benesi-Hildebrand plot / Job's plot of peptide with Cu^2+ ions; type: binding; details: read-out: stability constant (converted)
Experimental: FIG. 6. Benesi-Hildebrand plot. The stability constant derived from this plot was 6918.3±0.2 M^−1, similar to the known value for imidazole.
(FIG. 3A). […] A Job's plot was prepared as well with the peptide and Cu^2+ ions (FIG. 7B). In the samples with excess Cu^2+ ions (those above χ=0.5) the absorbance increased without an increase in the complex concentration. This may be because of the formation of Cu(OH)2 precipitates from the excess Cu^2+ ions due to the alkaline pH. To negate this effect, the absorbance values of solutions that contained the concentration of the excess Cu^2+ were subtracted from the original measurements. This yielded good linear fittings that indicate a 1:1 binding ratio.
For the UV-vis titration, a peptide solution (1.5 mm) was titrated with a CuCl2 solution (15 mM). The solutions were left for 5 min and the absorbance was measured using a UV-vis spectrophotometer (Shimadzu, UV-1650PC, Kyoto, Japan). For the Job's plot assay, peptide solutions with different mole fractions of Cu^2+ ions (up to 1 mm) were prepared at pH=9 and their absorbance values were measured.

[7] = Self-assembly of the peptide observed experimentally; type: physicochemical
[8] = histidine residues; cited from earlier work

## CCN(CC)C(=S)SSC(=S)N(CC)CC [Disulfiram]
[1]
  anti-tumor efficacy in presence of metal ions: promoted

## N[C@@H](Cc1ccccc1)C(=O)N[C@@H](Cc1c[nH]cn1)C(=O)N[C@@H](Cc1c[nH]cn1)C(=O)N[C@@H](Cc1ccccc1)C(=O)O [FHHF, Phe-His-His-Phe] (H-FHHF-OH)
[2]; 1 mM peptide and 1 mM Cu^2+
  emulsion stability compared with WHHW: less stable

## O=C1OC2(c3ccc(O)cc3Oc3cc(O)ccc32)c2ccc(N=C=S)cc21 [FITC, fluorescein isothiocyanate]
[3]
  solubility in castor oil: low solubility
  % EE (encapsulation efficiency) in words: lower
[4]
  Solubility in water: Insoluble

## CCN(CC)c1ccc2nc3c4ccccc4c(=O)cc-3oc2c1 [Nile red]
[4]
  Solubility in water: Insoluble

## Cc1ccc(C)c(N=Nc2cc(C)c(N=Nc3c(O)ccc4ccccc34)cc2C)c1 [Oil red O]
[3]
  solubility in castor oil: low solubility
  % EE (encapsulation efficiency) in words: lower
[4]
  Solubility in water: Insoluble

## CC(=O)O[C@H]1C(=O)[C@@]2(C)[C@H]([C@H](OC(=O)c3ccccc3)[C@]3(O)C[C@H](OC(=O)[C@H](O)[C@@H](NC(=O)c4ccccc4)c4ccccc4)C(C)=C1C3(C)C)[C@]1(OC(C)=O)CO[C@@H]1C[C@@H]2O [Paclitaxel]
[1]
  anti-tumor efficacy in presence of metal ions: enhanced
[5]
  IC50: 0.014 ± 0.005 µM
[4]
  Solubility in water: Insoluble

## N[C@@H](Cc1c[nH]c2ccccc12)C(=O)N[C@@H](Cc1c[nH]cn1)C(=O)N[C@@H](Cc1c[nH]cn1)C(=O)N[C@@H](Cc1c[nH]c2ccccc12)C(=O)O [WHHW, Trp-His-His-Trp] (H-WHHW-OH)
[6]
  Kd: 145 µM
[7]; 5 mM peptide, 5 mM Cu^2+
  self-assembled structure with Cu^2+ ions: spherical aggregates alongside the fibrous structures
[7]; 10 mM, water, 24 h
  self-assembled structure: fibrous structures
[2]; 1 mM peptide derivative and 1 mM Cu^2+
  formation of emulsions with Cu^2+ ions: formed emulsions

## COc1cc(/C=C/C(=O)CC(=O)/C=C/c2ccc(O)c(OC)c2)ccc1O [curcumin]
[1]
  anti-tumor efficacy in presence of metal ions: promoted

## c1c[nH]cn1 [imidazole]
[8]
  pKa of the imidazole's amine: ~ 6
